Reference: patent US20190298840A1, “FORMULATIONS COMPRISING HETEROCYCLIC RING SYSTEMS AND USES THEREOF” (Particle Sciences, Inc., priority 2016, published 2019)

Columns and labels:
Immunoglobulin G (IgG) = assay: Microscale thermophoresis binding affinity with IgG (Monolith NT.115); conditions: construct 500 nM, IgG 12.5 μM-350 pM
Procedure: (§1) Binding affinities of pyridinium constructs with macromolecules were measure using Monolith NT.115 system developed by Nano Temper technology (https://nanotempertech.com/monolith/). The Monolith NT.115 equipment measures the strength of the interactions between a fluorescently labeled or intrinsically fluorescent sample and a binding partner such as a macromolecule are measured while a temperature gradient is applied over time. The molecular mobility of a fluorescently labeled construct in a thermo gradient when alone and in presence of increasing concentrations of binding partner is compared. From this, binding affinity (Kd) is calculated from a fitted curve that plots normalized fluorescence against concentration of ligand.
The experiment was conducted to measure the binding affinity of the pyridinium construct containing fluorescein with increasing concentrations of Immunoglobulin G (IgG) in presence of PBS buffer and saline. The results of the binding affinity curve at increasing concentrations of IgG in two different solutions (PBS & Saline) are shown in FIG. 16.
(§2) The IgG protein was tested at a concentration range of 12.5 μM-350 pM and the pyridinium-fluorescein construct was at a concentration of 500 nM. Likewise, for experiments involving HSA, the HSA protein was at a concentration range of 125 μM-3.5 nM and the pyridinium-fluorescein construct was at a concentration of 500 nM.

[1] = target: human serum albumin (HSA) (Homo sapiens, UniProt P02768); assay: Microscale thermophoresis binding affinity with HSA (Monolith NT.115); conditions: construct 500 nM, HSA 125 μM-3.5 nM, compared with IgG
Sequence of human serum albumin (HSA) (P02768 25-609): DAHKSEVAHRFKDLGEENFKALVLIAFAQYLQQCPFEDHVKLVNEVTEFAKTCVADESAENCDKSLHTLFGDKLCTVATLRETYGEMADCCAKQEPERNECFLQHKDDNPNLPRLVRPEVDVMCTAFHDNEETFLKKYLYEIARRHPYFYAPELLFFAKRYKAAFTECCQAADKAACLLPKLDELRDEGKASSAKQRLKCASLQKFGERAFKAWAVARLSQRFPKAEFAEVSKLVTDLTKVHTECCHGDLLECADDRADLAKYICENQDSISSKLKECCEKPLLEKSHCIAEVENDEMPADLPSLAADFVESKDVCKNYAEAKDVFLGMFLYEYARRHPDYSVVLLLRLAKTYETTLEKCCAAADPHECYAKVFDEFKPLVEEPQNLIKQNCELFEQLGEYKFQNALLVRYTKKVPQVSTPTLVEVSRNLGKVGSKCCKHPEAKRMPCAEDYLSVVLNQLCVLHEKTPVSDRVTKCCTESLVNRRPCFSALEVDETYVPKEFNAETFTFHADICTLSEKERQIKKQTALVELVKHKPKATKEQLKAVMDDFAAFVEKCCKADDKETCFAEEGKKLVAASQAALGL
Procedure: as §1, §2
The experiment was repeated with human serum albumin (HSA) instead of IgG under similar conditions. The results of the binding affinity curve at increasing concentrations of HSA in two different solutions (PBS & Saline) are shown in FIG. 17.

rabbit IgG = assay: ELISA with pyridinium-biotin construct on IgG coated, BSA blocked wells vs BSA only wells (FIG. 20); format: binding; conditions: PBS buffer; femtomole range of construct; avidin-HRP detection
Excerpt: Another variation of ELISA assay is one in which the plate wells are first coated with rabbit IgG. After a wash with PBS buffer, the IgG coated wells are blocked with bovine serum albumin (BSA) to saturate the remaining surface of the wells in order to lower background noise. A set of control wells are coated and blocked with BSA only as described above. The IgG coated and BSA blocked wells are then reacted with pyridinium-biotin construct in PBS buffer. Increasing amounts of with pyridinium-biotin construct in femtomole range are added in different wells. Those wells are washed with PBS buffer and reacted with constant amount of avidin-Horseradish peroxidase (HRP) in PBS. The colorimetric product of the reaction is then detected by an ELISA plate reader.

IgG = IgG binding experiment, free IgG measured after overnight binding (FIG. 10); set-up: species or system human; conditions: PBS and water conditions
Procedure: Human IgG1 or albumin shall be used as the biomolecule of interest.
In separate trials, the experiment was done in presence of water and PBS buffer solutions. The percentage of unbound IgG and pyridinium bound IgG were determined by measuring the free IgG (protein) after the protein was allowed to bind overnight with pyridinium constructs.

**Q.** For `O=C(NCC[n+]1ccccc1)c1ccc2c(c1)C1(OC2=O)c2ccc(O)cc2Oc2cc(O)ccc21` [pyridinium-fluorescein construct, 1-(2-(3′,6′-dihydroxy-3-oxo-3H-spiro[isobenzofuran-1,9′-xanthene]-6-ylcarboxamido)ethyl)pyridinium], which Kd (Immunoglobulin G (IgG); in PBS) is on record?
**A.** The Kd was 20 nM.

**Q.** What about the Kd (Immunoglobulin G (IgG); in saline) of the same compound?
**A.** Its Kd is 1500 nM.

**Q.** What about the “binding affinity to HSA” value ([1]; PBS solution) of the same compound?
**A.** Its value is “much lower than that of IgG”.

**Q.** What about the “binding affinity to HSA” value ([1]; saline solution) of the same compound?
**A.** Its value is “comparable to that of IgG”.

**Q.** For `O=C(CCCCC1SCC2NC(=O)NC21)NCC[n+]1ccccc1` (stereo not drawn) [pyridinium constructs, 1-(2-(5-(2-oxohexahydro-1H-thieno[3,4-d]imidazol-4-yl)pentanamido)ethyl)pyridinium], which “binding affinity in ELISA, IgG vs BSA dilution curves” value (rabbit IgG) is on record?
**A.** Its value is “strong binding affinity of IgG even at lower concentrations when compared with that of BSA”.

**Q.** With `CCCCCCCCCCCCCCCC[N+](C)(C)C.[Br-]` [CTAB, Cetyl trimethylammonium bromide] as the compound, how does the “binding to IgG” value (IgG) read?
**A.** The value was “did not bind to the IgG protein”.
